This is an account of results in patent US20170239212A1, “[…] AND USE THEREOF AS ANTIVIRAL AGENTS” (priority 2014, published 2017).

Read-outs that look alike come from different tables or passages of the source.

The conditions of data set [1]: ester bond, 2,4,6-trichlorobenzoyl chloride / Et3N / DMAP, toluene, 40.0 °C, 14.0 h.
Data set [2] relates to U937 cells. The experiment in a line: Attachment of U937 cells. The class given is cell-based, human. The settings on record: 72 hours. The procedure: (§1) U937 cells (Sundstrom, C.; Nilsson, K.: Establishment and characterization of a human histiocytic lymphoma cell line (U-937). Int. J. Cancer 1976, 17: 565-577), purchased from ATCC (Manassas, Va.) and cultured in RPMI-1640 medium supplemented with 10% FBS (ATCC, Manassas, Va.), were plated in 35 mm dishes at a density of 2×10^5 living cells/ml and treated with different concentrations of the drugs or DMSO. After 72 hours, the number of cells in the supernatant (non-attached cells) and the number of attached cells (after trypsinization) were counted using a Beckman particle counter (Beckman Coulter Inc., Fullerton, Calif.). The number of attached cells is expressed as percent of total cells (FIGS. 8-10).
U937 cells were treated with PMA (0.1-100 nM), bryostatin 1 (1-1000 nM), the indicated compound (1-1000 nM), 10 nM PMA with different concentrations of bryostatin 1 (1-1000 nM) or 10 nM PMA with different concentrations of indicated compound (1-1000 nM) for 72 hours. The number of attached cells and total cells were counted and the attached cells were graphed as percent of total cells. The bars and error bars represent the average and the standard error of the mean of five independent experiment (FIGS. 8-10).
(§2) U937 cells (Sundstrom and Nilsson, 1976), purchased from ATCC (Manassas, Va.) and cultured in RPMI-1640 medium supplemented with 10% FBS (ATCC, Manassas, Va.), were plated in 35 mm dishes at a density of 1×10^5 living cells/ml and treated with different concentrations of the drugs or DMSO. After 72 hours, the number of cells in the supernatant (non-attached cells) and the number of attached cells (after trypsinization) were counted using a particle counter. The number of attached cells is expressed as percent of total cells.
U937 cells were treated with PMA (0.01-100 nM), bryostatin 1 (0.1-1000 nM), analogue 12 (MERLE 28) (0.1-1000 nM), 10 nM PMA with different concentrations of bryostatin 1 (0.1-1000 nM) or 10 nM PMA with different concentrations of analogue 12 (0.1-1000 nM). The number of attached cells and total cells were counted and the attached cells were graphed as percent of total cells. The bars and error bars represent the average and the standard error of the mean of at least three independent experiments.
as §2
U937 cells were treated with PMA (0.1-100 nM), bryostatin 1 (1-1000 nM), the indicated compound (1-1000 nM), 10 nM PMA with different concentrations of bryostatin 1 (1-1000 nM) or 10 nM PMA with different concentrations of indicated compound (1-1000 nM) for 72 hours. The number of attached cells and total cells were counted and the attached cells were graphed as percent of total cells. The bars and error bars represent the average and the standard error of the mean of at least three independent experiments.

The test system of data set [3] is U937 cells. The experiment in a line: Inhibition of U937 cell proliferation. Type of data set: cell-based, human. The procedure: as §1
U937 cells were treated with PMA (0.1-100 nM), bryostatin 1 (1-1000 nM), the indicated compound (1-1000 nM), 10 nM PMA with different concentrations of bryostatin 1 (1-1000 nM) or 10 nM PMA with different concentrations of indicated compound (1-1000 nM). The number of attached and non-attached cells was counted and the number of total cells was expressed as % of control. The bars and error bars represent the average and the standard error of the mean of five independent experiments (FIGS. 8-10).
as §2
U937 cells were treated with PMA (0.01-100 nM), bryostatin 1 (0.1-1000 nM), analogue 12 (MERLE 28) (0.1-1000 nM), 10 nM PMA with different concentrations of bryostatin 1 (0.1-1000 nM) or 10 nM PMA with different concentrations of analogue 12 (0.1-1000 nM). The numbers of attached and non-attached cells were counted and the number of total cells was expressed as % of control. The bars and error bars represent the average and the standard error of the mean of at least three independent experiments.
as §2
U937 cells were treated with PMA (0.1-100 nM), bryostatin 1 (1-1000 nM), the indicated compound (1-1000 nM), 10 nM PMA with different concentrations of bryostatin 1 (1-1000 nM) or 10 nM PMA with different concentrations of indicated compound (1-1000 nM). The number of attached and non-attached cells was counted and the number of total cells was expressed as % of control. The bars and error bars represent the average and the standard error of the mean of at least three independent experiments.

A further data set in a line: in vitro. Type of data set: cell-based. The note with it: human; Jurkat cells, knock down of cellular ATP. Here is the method:
(§3) The compounds were also tested in the T cell derived Jurkat cell line transfected with a luciferase reporter under control of an HIV long terminal repeat (LTR) promoter. Specifically, EC50 and CC50 values were determined in parallel using 10 concentrations of compound from 3 fold serial dilutions starting a 5 uM as the highest concentration. Cells and media were added to compounds with a final concentration of DMSO of 1% and incubated at 37° C., 5% CO2 for 24, 48 and 72 hours. EC50 was measured by induced luciferase activity detected by the use of the Steady-Glo® Luciferase reagent (PROMEGA) with an EnVision (Perkin-Elmer) plate reader. CC50 was determined by the dose dependent knock down of cellular ATP detected by the use of CellTiter-Glo® Luminescent Cell Viability reagent (PROMEGA) with an EnVision (Perkin-Elmer) plate reader.

Data set [4] deals with HIV long terminal repeat (LTR) promoter. The experiment in a line: cells. Type of data set: cell-based. The settings on record: Jurkat cells; for EC50: Human immunodeficiency virus 1, LTR-luciferase, incubated 24, 48 and 72 hours (time of the listed values not stated); for Selectivity (CC50:EC50) / selectivity ratio: ratio of the CC50 to the EC50; for selectivity ratio: human. Here is the method: as §3

[5] abbreviates: 10 nM PMA with different concentrations of compound.

`C=C1C[C@@H]2C[C@@H]3CC(=C)C[C@H](/C=C/C(C)(C)[C@]4(OC)O[C@@H](C/C(=C\C(=O)OC)[C@@H]4OC(=O)/C=C/C=C/CCC)C[C@H]([C@@H](C)OCOCc4ccccc4)OC(=O)C[C@H](OCc4ccc(OC)cc4)C[C@H](C1)O2)O3`: the ring closure, yield of all isomers in data set [1] (from C=C1C[C@H](C[C@@H]2CC(=C)C[C@H](/C=C/C(C)(C)[C@]3(OC)O[C@H](C[C@@H](O)[C@@H](C)OCOCc4ccccc4)C/C(=C\C(=O)OC)[C@@H]3OC(=O)/C=C/C=C/CCC)O2)O[C@H](C[C@H](CC(=O)O)OCc2ccc(OC)cc2)C1, 0.74 mM, 2 steps) was 52%.

On to `C=C1C[C@@H]2C[C@@H]3CC(=C)C[C@H](/C=C/C(C)(C)[C@]4(OC)O[C@@H](C/C(=C\C(=O)OC)[C@@H]4OC(C)=O)C[C@H]([C@@H](C)OCOCc4ccccc4)OC(=O)C[C@H](OCc4ccc(OC)cc4)C[C@H](C1)O2)O3`, for which the ring closure, yield of all isomers in data set [1] (from C=C1C[C@H](C[C@@H]2CC(=C)C[C@H](/C=C/C(C)(C)[C@]3(OC)O[C@H](C[C@@H](O)[C@@H](C)OCOCc4ccccc4)C/C(=C\C(=O)OC)[C@@H]3OC(C)=O)O2)O[C@H](C[C@H](CC(=O)O)OCc2ccc(OC)cc2)C1, 0.97 mM, 2 steps) came out at 58%.

`C=C1C[C@@H]2C[C@@H]3CC(=C)C[C@H](/C=C/C(C)(C)[C@]4(OC)O[C@@H](CCC4=O)C[C@H]([C@@H](C)OCOCc4ccccc4)OC(=O)C[C@H](OCc4ccc(OC)cc4)C[C@H](C1)O2)O3` registered a ring closure, yield of all isomers in data set [1] (from C=C1C[C@H](C[C@@H]2CC(=C)C[C@H](/C=C/C(C)(C)[C@]3(OC)O[C@H](C[C@@H](O)[C@@H](C)OCOCc4ccccc4)CCC3=O)O2)O[C@H](C[C@H](CC(=O)O)OCc2ccc(OC)cc2)C1, 0.85 mM, 2 steps) of 87%.

On to `C=C1C[C@H]2C[C@H]3C[C@@H](O[Si](CC)(CC)CC)C[C@@H](C[C@@H](OCc4ccc(OC)cc4)CC(=O)O[C@@H]([C@@H](C)OCOCc4ccccc4)C[C@@H]4C/C(=C\C(=O)OC)[C@H](OC(=O)CCCCCCC)[C@@](OC)(O4)C(C)(C)/C=C/[C@@H](C1)O2)O3`, for which the ring closure, yield of all isomers in data set [1] (from C=C1C[C@@H](C[C@H]2C[C@@H](O[Si](CC)(CC)CC)C[C@@H](C[C@H](CC(=O)O)OCc3ccc(OC)cc3)O2)O[C@@H](/C=C/C(C)(C)[C@]2(OC)O[C@H](C[C@@H](O)[C@@H](C)OCOCc3ccccc3)C/C(=C\C(=O)OC)[C@@H]2OC(=O)CCCCCCC)C1, 0.79 mM) turned out to be 91%.

For the compound `C=C1C[C@H]2C[C@]3(OC)O[C@H](C[C@@H](O[Si](CC)(CC)CC)CC(=O)O[C@@H]([C@@H](C)OCOCc4ccccc4)C[C@@H]4C/C(=C\C(=O)OC)[C@H](OC(=O)/C=C/C=C/CCC)[C@@](OC)(O4)C(C)(C)/C=C/[C@@H](C1)O2)C[C@H](OC(C)=O)C3(C)C`, the ring closure, yield of all isomers in data set [1] (from C=C1C[C@@H](C[C@]2(OC)O[C@H](C[C@H](CC(=O)O)O[Si](CC)(CC)CC)C[C@H](OC(C)=O)C2(C)C)O[C@@H](/C=C/C(C)(C)[C@]2(OC)O[C@H](C[C@@H](O)[C@@H](C)OCOCc3ccccc3)C/C(=C\C(=O)OC)[C@@H]2OC(=O)/C=C/C=C/CCC)C1, 0.62 mM, 2 steps) stood at 62%.

`C=C1C[C@H]2CC3(O)O[C@H](C[C@@H](O)CC(=O)O[C@@H]([C@@H](C)O)C[C@@H]4C/C(=C\C(=O)OC)[C@H](OC(=O)/C=C/C=C/CCC)[C@@](O)(O4)C(C)(C)/C=C/[C@@H](C1)O2)C[C@H](OC(C)=O)C3(C)C` [MERLE 28]: in the data set with U937 cells [2] (setting [5]), the “Block of PMA-induced attachment of U937 cells” value is “blocks the effect of the phorbol ester when the two agents are administered together”. For the same compound, the “Attachment of U937 cells (attached cells as percent of total)” value in the data set with U937 cells [2] (compound alone) is listed as “approaches that of bryostatin 1 itself”. Also, the “Block of PMA inhibition of U937 cell proliferation” value in the data set with U937 cells [3] (setting [5]) is “Both of these aspects of bryostatin 1 induced biological response are captured”. The “Inhibition of U937 cell proliferation (total cells as % of control)” value in the data set on U937 cells [3] (compound alone, 72 hours) was “very similar to those for bryostatin 1”.

`C=C1CC2C[C@@H](O)CC(=O)O[C@@H]([C@@H](C)O)C[C@@H]3C/C(=C\C(=O)OC)[C@H](OC(C)=O)[C@@](O)(O3)C(C)(C)/C=C/[C@H]3CC(=C)C[C@@H](C[C@@H](C1)O2)O3` [MERLE 35]: the cytotoxic concentration (CC50) (usually the concentration that lowers cell viability or growth by half) in “in vitro” was found to be 50 nM. Besides, in data set [4], a half-maximal effect (EC50) was put at 10 nM, the “Selectivity (CC50:EC50)” value is listed as “greater than one” and the selectivity ratio was 5.

`C=C1CC2C[C@@H](O)CC(=O)O[C@@H]([C@@H](C)O)C[C@@H]3C/C(=C\C(=O)OC)[C@H](OC(=O)CCCCCN(C)C)[C@@](O)(O3)C(C)(C)/C=C/[C@H]3CC(=C)C[C@@H](C[C@@H](C1)O2)O3` [MERLE 37] displayed a CC50 in the data set “in vitro” of 550 nM. For the same compound, in data set [4], the EC50 (usually the concentration at which the effect is half-maximal) amounted to 80 nM, the “Selectivity (CC50:EC50)” value was “greater than one” and the selectivity ratio was 6.9.
